{
  "source": "patent EP0303391B1",
  "about": "“Optical isomers of a spiroquinuclidine derivative” (State of Israel Represented by the Prime Minister's Office …, priority 1987, dated 1989)",
  "key": {"mice": {"tested_on": "mice", "experiment": "LD50 in mice", "assay_type": "in vivo", "details": "HCl salts", "from_the_text": "(§1) The LD₅₀ in mice of (+)-, (-) and [for comparison] There are no significant differences in the toxicity of the tested compounds."}, "M₁ receptors": {"target": "T1, M₁ receptors (Rattus norvegicus, UniProt P08482)", "T1 sequence (P08482 1-460)": "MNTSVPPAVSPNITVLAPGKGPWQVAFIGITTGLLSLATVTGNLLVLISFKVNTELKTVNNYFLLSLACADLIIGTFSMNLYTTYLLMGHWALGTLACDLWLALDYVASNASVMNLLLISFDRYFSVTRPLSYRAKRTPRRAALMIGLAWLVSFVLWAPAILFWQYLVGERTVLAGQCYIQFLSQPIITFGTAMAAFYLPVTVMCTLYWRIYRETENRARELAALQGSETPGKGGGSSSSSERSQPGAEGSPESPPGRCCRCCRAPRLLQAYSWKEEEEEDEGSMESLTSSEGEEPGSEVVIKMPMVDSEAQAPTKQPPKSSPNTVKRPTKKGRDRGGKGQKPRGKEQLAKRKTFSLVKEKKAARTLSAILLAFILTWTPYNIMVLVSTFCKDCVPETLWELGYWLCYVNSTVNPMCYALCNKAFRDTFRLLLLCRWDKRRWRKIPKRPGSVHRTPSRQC", "experiment": "biochemical", "assay_type": "binding", "details": "for a:c: ratio Ki(3H-PZ):Ki(3H-CD)"}, "muscarinic receptors [1]": {"tested_on": "muscarinic receptors", "assay_type": "binding, rat", "details": "for Ki: rat forebrain homogenates, mean ± spread (n), Ki = IC50 ÷ (1 + C/KD), read-out: Ki(^3H-QNB)"}, "[2]": {"tested_on": "isolated guinea pig ileum", "experiment": "Isolated guinea pig ileum induced contraction", "assay_type": "cell-based"}, "[3]": {"tested_on": "AF64A and saline-injected rats", "experiment": "Passive avoidance (step-through) retention in AF64A and saline-injected rats", "assay_type": "in vivo, Sprague-Dawley rats", "details": "for Retention latency after 72 hours: 0.2mg./kg. per os post-training, cut-off 600 secs., nine rats per group; for net latencies of AF64A-treated groups compared with the group treated with double distilled water: p < 0.005 for (-)-, p < 0.05 for (±)-cis", "from_the_text": "Ethylcholine aziridinium ion (hereinafter denoted AF64A) is a selective presynaptic cholinergic neurotoxin, which on intracerebroventricular injection in rats induces persistent cholinergic hypofunction that mimics the cortical and hippocampal cholinegic deficiency and the cognitive impairments reported in SDAT. Accordingly, the possibility of reversal of the AF64A-induced effects by (-)- and [for comparison] (±)-cis-2-methylspiro(1,3-oxathiolan-5,3′)quinuclidine in the passive avoidance task was studied. In this experiment, the results of which are reported in Table 4, we investigated the effect of these substances (0.2mg./kg/., per os) on the retention after 72 hours of an inhibitory learning (passive avoidance-step through) task in AF64A and saline-injected rats, using a post-training drug treatment paradigm. The surgery carried out on the test animals (Sprague-Dawley rats raised by Charles River) was similar to that described in our prior published European Patent Application No. 0205247. The behavioral studies were performed one month after surgery.\nThe behavioral testing procedure comprised two phases, 1 and 2. In a pretest training procedure each rat was individually placed in a small lighted front compartment of a two-compartment box. After a 60 secs. familiarization/adaptation period, the door separating the two compartments was opened and a clock activated. The rat's latency to enter the large dark compartment of the box (to step-through) was measured. Immediately following entry into the dark compartment, the rat was subjected to an inescapable scrambled foot shock applied to the grid floor (0.6mA for 3 secs.). Sixty secs. after the termination of the shock, at the end of the training procedure, the rat was removed from the dark compartment and double distilled water, (-)- and (±)-cis-2-methylspiro(1,3-oxathiolan-5,3′)quinuclidine were administered per os. Rats were then returned to their home cage. Retention of the passive avoidance task was measured […]. after training by again placing the rat in the lighted front compartment, and after a 60 secs. adaptation period, measuring the latency to enter the dark compartment. The test session ended when a rat entered the dark compartment or after 600 secs. had elapsed. […]"}, "LD50 in mice": {"experiment": "LD50 in mice", "assay_type": "in vivo", "details": "mouse, in vivo, HCl salts, read-out: LD₅₀", "from_the_text": "as §1"}, "muscarinic receptors [4]": {"target": "muscarinic receptors", "experiment": "Displacement of 3H-cis-dioxolane (3H-CD) from rat forebrain homogenates", "assay_type": "binding"}, "[5]": {"details": "index of M1 versus M2 selectivity"}},
  "note": "Like-named read-outs stand apart in the source and are kept apart here.",
  "data": [
    {"molecule": "CC1OC2(CS1)CN1CCC2CC1", "note": "(single isomer, unassigned; (-)) [(-)-cis-isomer, (-)-cis-2-methylspiro(1,3-oxathiolan-5,3')quinuclidine]", "values": [
      {"measurement": "LD₅₀", "setting": "mice; female mice", "value": 40, "unit": "mg/kg"},
      {"measurement": "LD₅₀", "setting": "mice; male mice", "value": 35, "unit": "mg/kg"},
      {"measurement": "Ki", "setting": "M₁ receptors; Ki(^3H-PZ)", "value": 1.1, "unit": "µM"},
      {"measurement": "times more potent in ³H-QNB displacement than its racemate", "setting": "muscarinic receptors [1]; relative to (±)-cis-isomer", "value": 2.2},
      {"measurement": "type of activity", "setting": "[2]", "value": "agonist"},
      {"measurement": "Retention latency after 72 hours", "setting": "[3]; AF64A-treated rats", "value": "563.5 (±23.6) seconds"},
      {"measurement": "net latencies of AF64A-treated groups compared with the group treated with double distilled water", "setting": "[3]; AF64A-treated rats", "value": "significantly longer"},
      {"measurement": "Retention latency after 72 hours", "setting": "[3]; saline-treated rats", "value": "474 (±61.3) seconds"}
    ]},
    {"molecule": "CC1OC2(CS1)CN1CCC2CC1", "note": "(racemic) [(±)-cis-isomer, (±)-cis-2-methylspiro(1,3-oxathiolan-5,3')quinuclidine]", "values": [
      {"measurement": "LD50", "setting": "LD50 in mice; female mice", "value": 40.8, "unit": "mg/kg"},
      {"measurement": "LD50", "setting": "LD50 in mice; male mice", "value": 45, "unit": "mg/kg"},
      {"measurement": "a:b", "setting": "M₁ receptors", "value": 0.10},
      {"measurement": "Ki", "setting": "M₁ receptors; Ki(^3H-PZ)", "value": 0.6, "unit": "µM"},
      {"measurement": "a:c", "setting": "M₁ receptors; [5]", "value": 1.4},
      {"measurement": "type of activity", "setting": "[2]", "value": "agonist"},
      {"measurement": "Retention latency after 72 hours", "setting": "[3]; AF64A-treated rats", "value": "407.9 (±72.1) seconds"},
      {"measurement": "net latencies of AF64A-treated groups compared with the group treated with double distilled water", "setting": "[3]; AF64A-treated rats", "value": "significantly longer"},
      {"measurement": "Retention latency after 72 hours", "setting": "[3]; saline-treated rats", "value": "478.2 (±65.7) seconds"}
    ]},
    {"molecule": "CC1OC2(CS1)CN1CCC2CC1", "note": "(racemic) [(±)-trans-isomer, (±)-trans-2-methylspiro(1,3-oxathiolan-5,3')quinuclidine]", "values": [
      {"measurement": "a:b", "setting": "M₁ receptors", "value": 0.59},
      {"measurement": "a:c", "setting": "M₁ receptors; index of M1 versus M2 selectivity, listed as 3", "value": 8.1},
      {"measurement": "Ki", "setting": "M₁ receptors; read-out: Ki(^3H-PZ)", "value": "14.6 ± 2.9", "unit": "µM"},
      {"measurement": "type of activity", "setting": "[2]", "value": "agonist"}
    ]},
    {"molecule": "C[N+](C)(C)CC#CCOC(=O)Nc1cccc(Cl)c1", "note": "[McN-A-343]", "values": [
      {"measurement": "a:b", "setting": "M₁ receptors", "value": 0.35},
      {"measurement": "Ki", "setting": "M₁ receptors; Ki(^3H-PZ)", "value": 4.9, "unit": "µM"},
      {"measurement": "a:c", "setting": "M₁ receptors; [5]", "value": 12.25},
      {"measurement": "Ki", "setting": "muscarinic receptors [1]", "value": "14.2 ± 1.41", "unit": "µM"},
      {"measurement": "Ki", "setting": "muscarinic receptors [4]; mean ± spread (n), Ki = IC50 ÷ (1 + C/KD)", "value": "0.4 ± 0.1", "unit": "µM"}
    ]},
    {"molecule": "O=C1CCCN1CC#CCN1CCCC1", "note": "[Oxotremorine]", "values": [
      {"measurement": "Ki", "setting": "M₁ receptors; Ki(^3H-PZ)", "value": 0.6, "unit": "µM"},
      {"measurement": "a:c", "setting": "M₁ receptors; [5]", "value": 625},
      {"measurement": "a:b", "setting": "M₁ receptors; ratio Ki(3H-PZ):Ki(3H-QNB), index of M1 versus M2 selectivity", "value": 0.35},
      {"measurement": "Ki", "setting": "muscarinic receptors [1]", "value": "1.7 ± 0.3", "unit": "µM"},
      {"measurement": "Ki", "setting": "muscarinic receptors [4]; footnote *: expressed in M x 10^-10", "value": "0.00096 ± 0.00042", "unit": "µM"}
    ]},
    {"molecule": "CC(=O)OCC[N+](C)(C)C", "note": "[Acetylcholine]", "values": [
      {"measurement": "EC50", "setting": "[2]; Cavia porcellus, induced contraction of isolated guinea pig ileum", "value": 0.05, "unit": "µM"}
    ]},
    {"molecule": "CC1OC2(CS1)CN1CCC2CC1", "note": "(single isomer, unassigned; (+)) [(+)-cis-isomer, (+)-cis-2-methylspiro(1,3-oxathiolan-5,3')quinuclidine]", "values": [
      {"measurement": "LD50", "setting": "LD50 in mice; female mice", "value": 45, "unit": "mg/kg"},
      {"measurement": "LD50", "setting": "LD50 in mice; male mice", "value": 39.1, "unit": "mg/kg"},
      {"measurement": "Ki", "setting": "M₁ receptors; Ki(^3H-PZ)", "value": 9.6, "unit": "µM"},
      {"measurement": "type of activity", "setting": "[2]", "value": "inactive as agonist"}
    ]}
  ]
}
